In the test the test system is ligand-dependent transcription factors (AhR, ER, and AR). Put plainly: Reporter gene (luciferase) assay in Neuro2a cells carrying PGV-THp03 (SEQ ID No: 2). The test is classed as cell-based, mouse. The following applies: for luciferase activity increase: 30 hours, PGV-THp03, AhR-introduced Neuro2a. Here is the method:
A vector (PGV-THp03) containing the upstream region (SEQ ID No: 2) ranging from about −300 to 0 position of the TH gene-coding region, which was prepared in Example 4, was used. Neuro2a was used as the cell.
Two kinds of vectors, pcDNA4-rAhR (Example 1) and pcDNA4/V5-His/lacZ (Invitrogen), were introduced into Neuro2a, together with PGV-THp03. pcDNA4-rAhR was introduced for constitutive expression of the SD-line rat AhR gene (SEQ ID No: 10) in the cell, and pcDNA4/V5-His/lacZ was introduced for normalization of the vector transfection efficiency.
The vectors were introduced into the cell by using LIPOFECTAMINE 2000 (Invitrogen). The cell was cultured on a 24-well plate, and the operation was performed according to the manual of Invitrogen. A total of […] of vectors (0.4 μg of PGV-THp03, 0.2 μg of pcDNA4-rAhR, and 0.2 μg of pcDNA4/V5-His/lacZ) suspended in 50 μl of OPTI-MEM medium and 2 μl of LIPOFECTAMINE 2000 suspended in 50 μl of OPTI-MEM medium were mixed, and incubated at room temperature for 20 minutes to form nucleic acid/LIPOFECTAMINE 2000 complex. The obtained suspension containing the complex was added to Neuro2a cell culture, which has been previously cultured overnight in 500 μl of DF1:1 medium (containing 10% fetal calf serum) (0.8×10^5 cells were seeded on previous day), to allow incorporation of the vectors into the cell. The cell was cultured additionally for 24 hours after transfection, for the purpose of improvement in vector incorporation efficiency and expression of the protein derived from the introduced vectors.
As the test substances, vinclozolin (10 μM), dimethyl phthalate (10 μM), benzopyrene (1 μM), and dioxin (TCDD) (10 nM) were used. After the transfection and the additional incubation for 24 hours, the medium was replaced with a fresh medium containing any one of the test substances, and the cell was cultured additionally for 30 hours. After 30 hours, the medium was removed from the 24-well plate, and the cell was washed with phosphate buffer twice. 100 μl of a protein extraction solution (manufactured by TOYO B-NET) was added to each well, and the cell suspension was stirred gently at room temperature for 15 minutes and then frozen at −80° C. The frozen solution was thawed at room temperature, and the resulting solution was recovered in a tube and diluted ten times with a protein extraction reagent containing 1 mg/ml bovine serum albumin luciferase and β-galactosidase activities in the diluted solution were measured, and the expression amount of the reporter gene was calculated as a relative luminescence intensity per 1 ng of β-galactosidase per second (RLU/sec/ng β-galactosidase).
A general note: Reporter assays use an easily measured gene product as a stand-in for the process of interest.

`COC(=O)c1ccccc1C(=O)OC` [Dimethyl phthalate, dimethyl phthalate]: the luciferase activity increase entry (10 μM) is recorded as “approximately 1.2 times”.

Consider `c1ccc2c(c1)c1cccc3ccc4cccc2c4c31` [benzopyrene], for which the luciferase activity increase result (1 μM) is recorded as “approximately 1.3 times”.

In the case of `C=CC1(C)OC(=O)N(c2cc(Cl)cc(Cl)c2)C1=O` (stereo not shown) [vinclozolin], the luciferase activity increase entry (10 μM) is “approximately 1.3 times”. Besides, under “10 μM, PGV-THp03, cell with no AhR introduced”, the “change in luciferase activity” value was “no change in luciferase activity”.
